Assay results from ChEMBL document CHEMBL2417479, “Effects of the methoxy group in the side chain of debromoaplysiatoxin on its tumor-promoting and anti-proliferative activities” (Bioorg Med Chem Lett, 2013).

Legend:
Mus musculus [1] = assay: In vivo tumor-promoting activity in DMBA-treated ICR mouse assessed as increase in number of papillomas at 1.7 nmol administered twice per week measured at 13 to 20 weeks by two-stage carcinogenesis assay; format: ADME, organism-based
Mus musculus [2] = assay: In vivo tumor-promoting activity in DMBA-treated ICR mouse assessed as increase in number of papillomas at 3.4 nmol administered twice per week measured at 11 to 20 weeks by two-stage carcinogenesis assay; format: ADME, organism-based
Mus musculus [3] = assay: In vivo tumor-promoting activity in DMBA-treated ICR mouse assessed as tumor bearing mouse at 1.7 nmol administered twice per week measured after 20 weeks by two-stage carcinogenesis assay relative to control; format: ADME, organism-based; settings: 3360 h
Mus musculus [4] = assay: In vivo tumor-promoting activity in DMBA-treated ICR mouse assessed as tumor bearing mouse at 3.4 nmol administered twice per week measured after 20 weeks by two-stage carcinogenesis assay relative to control; format: ADME, organism-based; settings: 3360 h
[5] = Cytotoxicity against human Raji cells assessed as cell viability at 10^-7 M relative to control; format: cell-based; settings: read-out: Activity
[6] = Cytotoxicity against human Raji cells assessed as cell viability at 10^-6 M relative to control; format: cell-based; settings: read-out: Activity
[7] = Cytotoxicity against human Raji cells assessed as cell viability at 10^-8 M relative to control; format: cell-based; settings: read-out: Activity
Raji [8] = assay: Tumor-promoting activity against human Raji cells expressing EBV-EA at 10^-6 M after 48 hrs by indirect immunofluorescence assay relative to control; format: ADME, cell-based; settings: 1 µM
Raji [9] = assay: Tumor-promoting activity against human Raji cells expressing EBV-EA at 10^-8 M after 48 hrs by indirect immunofluorescence assay relative to control; format: ADME, cell-based; settings: 0.01 µM
Raji [10] = assay: Tumor-promoting activity against human Raji cells expressing EBV-EA at 10^-7 M after 48 hrs by indirect immunofluorescence assay relative to control; format: ADME, cell-based; settings: 0.1 µM
[11] = target: Protein kinase C theta type (Homo sapiens, UniProt Q04759); assay: Displacement of [3H]PDBu from PKCtheta C1B domain (unknown origin)
[12] = target: Protein kinase C eta type (Homo sapiens, UniProt P24723); assay: Displacement of [3H]PDBu from PKCeta C1B domain (unknown origin)
[13] = target: Protein kinase C epsilon type (Homo sapiens, UniProt Q02156); assay: Displacement of [3H]PDBu from PKCepsilon C1B domain (unknown origin)
[14] = target: Protein kinase C delta type (Homo sapiens, UniProt Q05655); assay: Displacement of [3H]PDBu from PKCdelta C1B domain (unknown origin)
[15] = target: Protein kinase C gamma type (Homo sapiens, UniProt P05129); assay: Displacement of [3H]PDBu from PKCgamma C1A domain (unknown origin)
[16] = target: Protein kinase C beta type (Homo sapiens, UniProt P05771); assay: Displacement of [3H]PDBu from PKCbeta C1A domain (unknown origin)
[17] = target: Protein kinase C alpha type (Homo sapiens, UniProt P17252); assay: Displacement of [3H]PDBu from PKCalpha C1A domain (unknown origin)
DU-145 = assay: Growth inhibition of human DU145 cells after 48 hrs by SRB assay; format: functional; settings: DU-145, 48 h
PC-3 = assay: Growth inhibition of human PC3 cells after 48 hrs by SRB assay; format: functional; settings: PC-3, 48 h
MKN-74 = assay: Growth inhibition of human MKN74 cells after 48 hrs by SRB assay; format: functional; settings: MKN-74, 48 h
MKN-45 = assay: Growth inhibition of human MKN45 cells after 48 hrs by SRB assay; format: functional; settings: MKN-45, 48 h
MKN-28 = assay: Growth inhibition of human MKN28 cells after 48 hrs by SRB assay; format: functional; settings: MKN-28, 48 h
MKN-7 = assay: Growth inhibition of human MKN7 cells after 48 hrs by SRB assay; format: functional; settings: MKN-7, 48 h
[18] = Growth inhibition of human MKN1 cells after 48 hrs by SRB assay; format: functional; settings: MKN-1, 48 h
St-4 = assay: Growth inhibition of human St-4 cells after 48 hrs by SRB assay; format: functional; settings: St-4, 48 h
ACHN = assay: Growth inhibition of human ACHN cells after 48 hrs by SRB assay; format: functional
[19] = Growth inhibition of human RXF631L cells after 48 hrs by SRB assay; format: functional; settings: RXF 631, 48 h
SK-OV-3 = assay: Growth inhibition of human SKOV3 cells after 48 hrs by SRB assay; format: functional; settings: SK-OV-3, 48 h
OVCAR-8 = assay: Growth inhibition of human OVCAR8 cells after 48 hrs by SRB assay; format: functional; settings: OVCAR-8, 48 h
OVCAR-4 = assay: Growth inhibition of human OVCAR4 cells after 48 hrs by SRB assay; format: functional; settings: OVCAR-4, 48 h
OVCAR-5 = assay: Growth inhibition of human OVCAR5 cells after 48 hrs by SRB assay; format: functional; settings: OVCAR-5, 48 h
OVCAR-3 = assay: Growth inhibition of human OVCAR3 cells after 48 hrs by SRB assay; format: functional; settings: OVCAR-3, 48 h
DMS-114 = assay: Growth inhibition of human DMS114 cells after 48 hrs by SRB assay; format: functional; settings: DMS-114, 48 h
LOX IMVI = assay: Growth inhibition of human LOXIMVI cells after 48 hrs by SRB assay; format: functional
DMS-273 = assay: Growth inhibition of human DMS273 cells after 48 hrs by SRB assay; format: functional; settings: DMS-273, 48 h
A549 = assay: Growth inhibition of human A549 cells after 48 hrs by SRB assay; format: functional; settings: A549, 48 h
NCI-H522 = assay: Growth inhibition of human NCI-H522 cells after 48 hrs by SRB assay; format: functional; settings: NCI-H522, 48 h
NCI-H460 = assay: Growth inhibition of human NCI-H460 cells after 48 hrs by SRB assay; format: functional; settings: NCI-H460, 48 h
NCI-H226 = assay: Growth inhibition of human NCI-H226 cells after 48 hrs by SRB assay; format: functional; settings: NCI-H226, 48 h
HCT-116 = assay: Growth inhibition of human HCT116 cells after 48 hrs by SRB assay; format: functional; settings: HCT-116, 48 h
NCI-H23 = assay: Growth inhibition of human NCI-H23 cells after 48 hrs by SRB assay; format: functional; settings: NCI-H23, 48 h
HCT-15 = assay: Growth inhibition of human HCT15 cells after 48 hrs by SRB assay; format: functional; settings: HCT-15, 48 h
KM12 = assay: Growth inhibition of human KM12 cells after 48 hrs by SRB assay; format: functional; settings: KM12, 48 h
HT-29 = assay: Growth inhibition of human HT-29 cells after 48 hrs by SRB assay; format: functional; settings: HT-29, 48 h
[20] = Growth inhibition of human HCC2998 cells after 48 hrs by SRB assay; format: functional; settings: HCC 2998, 48 h
SNB-78 = assay: Growth inhibition of human SNB-78 cells after 48 hrs by SRB assay; format: functional; settings: SNB-78, 48 h
SNB-75 = assay: Growth inhibition of human SNB75 cells after 48 hrs by SRB assay; format: functional; settings: SNB-75, 48 h
SF-539 = assay: Growth inhibition of human SF539 cells after 48 hrs by SRB assay; format: functional; settings: SF-539, 48 h
SF-295 = assay: Growth inhibition of human SF295 cells after 48 hrs by SRB assay; format: functional; settings: SF-295, 48 h
SF-268 = assay: Growth inhibition of human SF268 cells after 48 hrs by SRB assay; format: functional; settings: SF-268, 48 h
U-251 = assay: Growth inhibition of human U251 cells after 48 hrs by SRB assay; format: functional; settings: U-251, 48 h
MCF7 = assay: Growth inhibition of human MCF7 cells after 48 hrs by SRB assay; format: functional; settings: MCF7, 48 h
MDA-MB-231 = assay: Growth inhibition of human MDA-MB-231 cells after 48 hrs by SRB assay; format: functional; settings: MDA-MB-231, 48 h
[21] = Growth inhibition of human HBC5 cells after 48 hrs by SRB assay; format: functional; settings: HBC5, 48 h
[22] = Growth inhibition of human BSY1 cells after 48 hrs by SRB assay; format: functional; settings: BSY-1, 48 h
[23] = Growth inhibition of human HBC4 cells after 48 hrs by SRB assay; format: functional; settings: HBC4, 48 h

Protein kinase C theta type, sequence (Q04759 whole entry, the tested form may be a part): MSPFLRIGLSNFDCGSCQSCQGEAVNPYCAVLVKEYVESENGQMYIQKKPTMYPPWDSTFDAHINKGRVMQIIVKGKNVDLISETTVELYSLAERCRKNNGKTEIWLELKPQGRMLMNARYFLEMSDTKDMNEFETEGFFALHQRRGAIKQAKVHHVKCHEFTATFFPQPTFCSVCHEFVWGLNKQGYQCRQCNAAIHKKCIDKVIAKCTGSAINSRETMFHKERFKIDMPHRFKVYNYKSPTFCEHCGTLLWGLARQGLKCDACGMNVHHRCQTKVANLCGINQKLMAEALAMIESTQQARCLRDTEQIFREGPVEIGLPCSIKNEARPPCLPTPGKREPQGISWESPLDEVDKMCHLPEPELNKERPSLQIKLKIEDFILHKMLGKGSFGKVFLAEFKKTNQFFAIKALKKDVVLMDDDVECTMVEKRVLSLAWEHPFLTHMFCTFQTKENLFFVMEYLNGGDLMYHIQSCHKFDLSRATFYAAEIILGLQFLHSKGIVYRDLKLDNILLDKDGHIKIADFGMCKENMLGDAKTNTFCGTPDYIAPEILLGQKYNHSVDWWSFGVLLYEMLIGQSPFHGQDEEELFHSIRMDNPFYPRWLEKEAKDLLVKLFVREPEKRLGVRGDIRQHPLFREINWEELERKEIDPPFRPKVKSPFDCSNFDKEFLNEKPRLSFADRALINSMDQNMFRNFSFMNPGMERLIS
Protein kinase C eta type, sequence (P24723 whole entry, the tested form may be a part): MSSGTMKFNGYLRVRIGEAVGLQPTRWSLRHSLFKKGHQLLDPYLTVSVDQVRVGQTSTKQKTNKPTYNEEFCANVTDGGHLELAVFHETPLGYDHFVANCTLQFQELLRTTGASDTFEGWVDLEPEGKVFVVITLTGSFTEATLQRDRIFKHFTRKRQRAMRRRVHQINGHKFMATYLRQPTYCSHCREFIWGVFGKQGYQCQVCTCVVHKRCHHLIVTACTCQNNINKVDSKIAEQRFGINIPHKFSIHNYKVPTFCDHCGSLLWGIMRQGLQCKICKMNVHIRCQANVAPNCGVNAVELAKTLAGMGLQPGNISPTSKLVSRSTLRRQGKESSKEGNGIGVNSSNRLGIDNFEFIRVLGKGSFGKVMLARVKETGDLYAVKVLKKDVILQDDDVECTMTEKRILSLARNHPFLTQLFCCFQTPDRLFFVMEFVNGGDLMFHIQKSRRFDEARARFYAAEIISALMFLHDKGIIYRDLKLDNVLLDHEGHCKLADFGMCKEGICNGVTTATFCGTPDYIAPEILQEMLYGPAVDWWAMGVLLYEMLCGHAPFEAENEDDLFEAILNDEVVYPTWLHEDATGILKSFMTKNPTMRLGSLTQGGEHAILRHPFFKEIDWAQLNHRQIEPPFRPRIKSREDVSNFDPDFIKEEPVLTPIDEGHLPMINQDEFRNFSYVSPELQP
Protein kinase C epsilon type, sequence (Q02156 whole entry, the tested form may be a part): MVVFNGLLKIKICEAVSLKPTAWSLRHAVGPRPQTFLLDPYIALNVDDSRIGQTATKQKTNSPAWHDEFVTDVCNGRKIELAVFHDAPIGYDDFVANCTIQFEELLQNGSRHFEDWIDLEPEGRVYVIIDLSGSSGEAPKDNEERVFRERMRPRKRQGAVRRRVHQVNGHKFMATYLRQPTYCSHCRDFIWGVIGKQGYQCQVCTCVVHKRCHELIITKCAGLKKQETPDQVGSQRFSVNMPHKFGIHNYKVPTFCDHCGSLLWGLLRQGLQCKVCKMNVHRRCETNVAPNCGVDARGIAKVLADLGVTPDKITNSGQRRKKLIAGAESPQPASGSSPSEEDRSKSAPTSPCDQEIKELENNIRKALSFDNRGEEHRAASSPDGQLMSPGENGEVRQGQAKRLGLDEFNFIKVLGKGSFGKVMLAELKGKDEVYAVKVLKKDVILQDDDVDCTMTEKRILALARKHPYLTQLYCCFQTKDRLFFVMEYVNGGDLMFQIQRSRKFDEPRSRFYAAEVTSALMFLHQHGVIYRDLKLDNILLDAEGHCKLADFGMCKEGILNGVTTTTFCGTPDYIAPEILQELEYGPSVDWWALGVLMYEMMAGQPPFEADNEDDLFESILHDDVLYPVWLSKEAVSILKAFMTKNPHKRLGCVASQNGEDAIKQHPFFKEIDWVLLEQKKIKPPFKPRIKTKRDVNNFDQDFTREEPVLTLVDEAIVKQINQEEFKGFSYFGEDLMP
Protein kinase C beta type, sequence (P05771 whole entry, the tested form may be a part): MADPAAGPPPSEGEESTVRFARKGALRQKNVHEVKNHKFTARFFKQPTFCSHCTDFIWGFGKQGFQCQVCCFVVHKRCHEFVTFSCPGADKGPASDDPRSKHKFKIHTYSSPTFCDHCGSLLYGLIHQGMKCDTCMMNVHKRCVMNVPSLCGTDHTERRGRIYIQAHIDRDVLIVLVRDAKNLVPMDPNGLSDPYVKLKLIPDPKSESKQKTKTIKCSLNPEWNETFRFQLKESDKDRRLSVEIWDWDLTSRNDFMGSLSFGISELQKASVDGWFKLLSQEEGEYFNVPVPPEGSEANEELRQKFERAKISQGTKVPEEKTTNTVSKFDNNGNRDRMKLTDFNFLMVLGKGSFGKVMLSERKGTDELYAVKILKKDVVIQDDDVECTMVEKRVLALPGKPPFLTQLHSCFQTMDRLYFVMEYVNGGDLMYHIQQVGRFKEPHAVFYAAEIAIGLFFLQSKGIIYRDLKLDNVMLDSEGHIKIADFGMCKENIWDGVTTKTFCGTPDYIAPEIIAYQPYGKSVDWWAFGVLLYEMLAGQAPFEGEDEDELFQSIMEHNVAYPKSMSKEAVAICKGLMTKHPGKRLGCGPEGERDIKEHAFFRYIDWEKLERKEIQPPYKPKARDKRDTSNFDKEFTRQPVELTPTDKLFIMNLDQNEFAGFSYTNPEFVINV
Protein kinase C delta type, sequence (Q05655 whole entry, the tested form may be a part): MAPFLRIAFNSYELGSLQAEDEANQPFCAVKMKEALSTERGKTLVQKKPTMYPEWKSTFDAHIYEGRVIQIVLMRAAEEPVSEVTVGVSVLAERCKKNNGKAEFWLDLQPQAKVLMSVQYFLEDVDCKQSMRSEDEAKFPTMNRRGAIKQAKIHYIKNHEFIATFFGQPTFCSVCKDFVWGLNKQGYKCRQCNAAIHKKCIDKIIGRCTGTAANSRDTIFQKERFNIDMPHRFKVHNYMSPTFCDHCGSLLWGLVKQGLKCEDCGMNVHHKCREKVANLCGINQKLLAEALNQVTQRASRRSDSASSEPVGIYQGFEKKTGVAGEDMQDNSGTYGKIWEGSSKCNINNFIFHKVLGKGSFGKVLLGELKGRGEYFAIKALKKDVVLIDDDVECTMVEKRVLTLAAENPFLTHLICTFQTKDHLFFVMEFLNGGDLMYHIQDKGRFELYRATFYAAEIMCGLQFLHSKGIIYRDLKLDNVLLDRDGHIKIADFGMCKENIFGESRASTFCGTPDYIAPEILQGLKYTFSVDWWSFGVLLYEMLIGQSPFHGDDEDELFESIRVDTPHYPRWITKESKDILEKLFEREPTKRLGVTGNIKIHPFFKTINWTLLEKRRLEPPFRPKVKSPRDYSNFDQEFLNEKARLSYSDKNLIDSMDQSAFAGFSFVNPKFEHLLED

## CO[C@@H](CC[C@H](C)[C@H]1O[C@@]23C[C@H](OC(=O)C[C@H]([C@@H](C)O)OC(=O)C[C@](O)(O2)[C@H](C)CC3(C)C)[C@@H]1C)c1cccc(O)c1 [DEBROMOAPLYSIATOXIN]
Mus musculus [1]
  Activity: Toxic
Mus musculus [2]
  Activity: Toxic
Mus musculus [3]
  Activity: 80%
Mus musculus [4]
  Activity: 90%
[5]
  viability at 0.1 µM: 50%
[6]
  viability at 1 µM: 50%
[7]
  viability at 0.01 µM: 60%
Raji [8]
  Activity: 24.4%
Raji [9]
  Activity: 21.1%
Raji [10]
  Activity: 22.9%

## C[C@@H]1[C@@H]([C@@H](C)CCCc2cccc(O)c2)O[C@@]23C[C@@H]1OC(=O)C[C@H]([C@@H](C)O)OC(=O)C[C@](O)(O2)[C@H](C)CC3(C)C [DEMETHOXYDEBROMOAPLYSIATOXIN]
[11]
  Ki: 0.0002 µM
[12]
  Ki: 0.00018 µM
[13]
  Ki: 0.0013 µM
[14]
  Ki: 0.00032 µM
[15]
  Ki: 0.00069 µM
[16]
  Ki: 0.0015 µM
[17]
  Ki: 0.001 µM
DU-145
  GI50: 10.7 µM
PC-3
  GI50: 4.57 µM
MKN-74
  GI50: 6.92 µM
MKN-45
  GI50: 6.76 µM
MKN-28
  GI50: 6.76 µM
MKN-7
  GI50: 2.75 µM
[18]
  GI50: 5.5 µM
St-4
  GI50: 0.0129 µM
ACHN
  GI50: 2.51 µM
[19]
  GI50: 15.1 µM
SK-OV-3
  GI50: 7.24 µM
OVCAR-8
  GI50: 14.8 µM
OVCAR-4
  GI50: 7.24 µM
OVCAR-5
  GI50: 4.9 µM
OVCAR-3
  GI50: 8.13 µM
DMS-114
  GI50: 5.5 µM
LOX IMVI
  GI50: 1.62 µM
DMS-273
  GI50: 3.47 µM
A549
  GI50: 0.145 µM
NCI-H522
  GI50: 4.79 µM
NCI-H460
  GI50: 0.01 µM
NCI-H226
  GI50: 0.0525 µM
HCT-116
  GI50: 8.71 µM
NCI-H23
  GI50: 6.17 µM
HCT-15
  GI50: 9.77 µM
KM12
  GI50: 3.47 µM
HT-29
  GI50: 12.3 µM
[20]
  GI50: 0.0692 µM
SNB-78
  GI50: 6.46 µM
SNB-75
  GI50: 10.2 µM
SF-539
  GI50: 11.5 µM
SF-295
  GI50: 2.95 µM
SF-268
  GI50: 13.2 µM
U-251
  GI50: 7.24 µM
MCF7
  GI50: 5.62 µM
MDA-MB-231
  GI50: 0.049 µM
[21]
  GI50: 11.2 µM
[22]
  GI50: 6.17 µM
[23]
  GI50: < 0.01 µM
Mus musculus [1]
  Activity: Toxic
Mus musculus [2]
  Activity: Toxic
Mus musculus [3]
  Activity: 70%
Mus musculus [4]
  Activity: 90%
[5]
  viability at 0.1 µM: 50%
[6]
  viability at 1 µM: 50%
[7]
  viability at 0.01 µM: 60%
Raji [8]
  Activity: 18.6%
Raji [9]
  Activity: 14.3%
Raji [10]
  Activity: 17.9%
